The target of experiment [1] is human TRPV1 receptor (hTRPV1) (Homo sapiens (Human), UniProt Q8NER1). Briefly: Capsaicin activation assay (FLIPR intracellular Ca2+). The format is cell-based. In short, it runs like this:
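Recombinant HEK293 cells stably expressing hTRPV1, Calcium-4 dye loaded 90–120 min at room temperature, were preincubated with compound (12-point, one-third-log) for 3 min before capsaicin challenge. Peak FLIPR fluorescence minus baseline was normalised to capsaicin control response; IC50 from four-parameter logistic fit.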

The test system of the next experiment is rats. The experiment in a line: Rat acute capsaicin-induced flinching behavior. Type of experiment: in vivo. To be noted: single acute oral dose 100 μmol/kg, capsaicin 2.5 μg one hour after dosing, five minute observation. As to the method: Rats were placed in individual observation cages. Following an acclimation period of 30 minutes, selected compounds were administered orally at a dose of 100 μmol/kg orally in a vehicle (10% ethanol/20% Tween 80/70% polyethylene glycol-400) at a volume of 2 mL/kg. One hour after administration of the compound, 2.5 μg of capsaicin in a 10 μL solution of 10% ethanol/90% hydroxypropyl-β-cyclodextrin was injected subcutaneously into the dorsal aspect of the right hind paw. The observation cage was then suspended above mirrors in order to facilitate observation. […] The number of flinching behaviors of the injured paw was recorded during the five minute observation period (Gilchrist, H. D.; Allard, B. L.; Simone, D. A.; Enhanced withdrawal responses to heat and mechanical stimuli following intraplantar injection of capsaicin in rats. Pain, 1996, 67, 179-188). A single acute oral dose of Example 10 as described above produced a 56% reduction in flinching behavior relative to vehicle-treated animals.

Where two headings read alike, the source gives them in different places.

These results are taken from patent US8796328B2, “TRPV1 antagonists” (AbbVie Inc., priority 2012, dated 2014).

For orientation: IC50 means the midpoint of a concentration-inhibition curve.

Chain of human TRPV1 receptor (hTRPV1) (Q8NER1 whole entry): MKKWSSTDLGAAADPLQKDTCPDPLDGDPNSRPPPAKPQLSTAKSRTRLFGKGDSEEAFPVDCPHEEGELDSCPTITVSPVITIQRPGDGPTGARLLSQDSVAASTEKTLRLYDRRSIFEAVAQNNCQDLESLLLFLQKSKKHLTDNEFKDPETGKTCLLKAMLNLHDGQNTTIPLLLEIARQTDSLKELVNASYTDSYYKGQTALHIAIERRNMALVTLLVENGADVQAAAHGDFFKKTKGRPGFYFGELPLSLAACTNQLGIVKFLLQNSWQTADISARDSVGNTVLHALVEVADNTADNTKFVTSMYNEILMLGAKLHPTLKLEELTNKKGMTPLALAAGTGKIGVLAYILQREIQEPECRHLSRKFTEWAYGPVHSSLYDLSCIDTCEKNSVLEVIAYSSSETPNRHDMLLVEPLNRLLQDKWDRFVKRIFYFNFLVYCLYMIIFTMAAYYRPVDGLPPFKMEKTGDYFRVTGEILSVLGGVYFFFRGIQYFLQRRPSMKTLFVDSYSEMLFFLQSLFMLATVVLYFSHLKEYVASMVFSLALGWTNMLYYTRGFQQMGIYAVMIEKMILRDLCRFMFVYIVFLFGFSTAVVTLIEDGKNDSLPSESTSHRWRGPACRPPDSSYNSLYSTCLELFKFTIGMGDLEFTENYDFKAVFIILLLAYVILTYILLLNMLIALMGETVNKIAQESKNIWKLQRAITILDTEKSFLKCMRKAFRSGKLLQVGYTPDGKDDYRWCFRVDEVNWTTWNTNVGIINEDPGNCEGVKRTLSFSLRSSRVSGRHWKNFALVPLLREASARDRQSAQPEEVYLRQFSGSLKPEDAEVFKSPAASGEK

Consider `CS(=O)(=O)Nc1ccc(CNC(=O)N[C@@H]2CC(CF)(CF)Oc3cc(C(F)(F)F)ccc32)cc1F` [Example 10, N-{4-[({[(4R)-2,2-bis(fluoromethyl)-7-(trifluoromethyl)-3,4-dihydro-2H-chromen-4-yl]carbamoyl}amino)methyl]-2-fluorophenyl}methanesulfonamide], for which the IC50 in experiment [1] (Table 2, capsaicin-induced intracellular Ca2+ increase, read-out: human TRPV1 capsaicin IC50) amounted to 54 nM; in experiment [1] (inhibition of capsaicin-induced intracellular Ca2+ increase, compounds added 3 minutes prior to capsaicin, read-out: hTRPV1 cap. IC50), 54 nM. Moreover, the “reduction in flinching behavior relative to vehicle-treated animals” value in the experiment with rats turned out to be 56%.
